PMC8880385 (Pharmaceuticals, 2022)
Several values for one entry are separate records, joined by “and”; a condition that tells them apart may be missing. Equal entries are not always repeated. Entries after “also recorded” stand apart in the source; their conditions may differ.

Experiments:
O. volvulus pre-adult L5 [1] = assay: O. volvulus pre-adult (Ov L5) motility assay; assay type: cell-based, Onchocerca volvulus; details: for inhibition at 1 µM: Onchocerca volvulus
Experimental: O. volvulus adult male and female worms, which can only be obtained from infected individuals, are not readily accessible for ex vivo studies. Moreover, since there is no small animal model that can maintain infections by O. volvulus, a recently developed in vitro system was used to evaluate the macrofilaricidal effects on pre-adult worms. All compounds except for 04 were tested in this O. volvulus pre-adult/L5 motility and viability assay.
Briefly, Ov L3 larvae were cultured to the pre-adult/L5 stage in vitro as described by Voronin et al., 2019 [45]. Once larvae reached the L5 stage (after at least 70 days in culture), 8–10 Ov L5 were moved to new transwell inserts in a 24-well plate containing 0.5 mL Ov L4-CMS media seeded with a 3 × 10^4/well Human Umbilical Vein Endothelial Cells (HUVEC) monolayer. Duplicate wells were treated with 1 and/or 10 µM of compound. Ov L5 were exposed to compounds for 14 days (exchanged 50% of media with fresh compound every two days) and then cultured with new media without compound, exchanging 50% of media every 2–3 days, up to day 36. Control Ov L5 were treated with 0.05% DMSO. Concentrations were chosen based on activity in the B. pahangi female motility assay. Motility was assessed visually and ranked on a 0–100% scale every 2–3 days over the course of the assay. At the end of the motility assay, Ov L5 viability was measured by 3-(4,5-dimethylthiazol-2-yl)-2,5-diphenyltetrazolium bromide (MTT) assay. Ov L5 were incubated with 0.1% MTT in PBS at 37 °C for 1 h then visually inspected for blue coloration indicating MTT reduction. Worms were considered dead if <50% of the worm was stained blue, and worms were considered alive if >50% of the worm was stained blue.

O. ochengi adult males = assay: O. ochengi adult male motility assay; assay type: cell-based; details: Onchocerca ochengi, 120 h; read-out: O. ochengi Adult Males Inhibition of Motility Day 5 IC50
From the text: As humans are the only hosts for O. volvulus which are unavailable for screening, drug discovery relies on the surrogate filarial parasites Brugia spp. and cattle Onchocerca spp. Prioritized compounds from the Brugia worm screens were further tested with female and male adult O. ochengi as well as O. ochengi and L. loa mf.
For these assays, O. ochengi adults were extracted from the subcutaneous nodules of infected cow skins purchased from the local slaughterhouse (Douala, Littoral Region, Cameroon) and incubated in 4 mL complete culture media comprised of RPMI-1640 (Sigma-Aldrich), 5% newborn calf serum, 200 units/mL penicillin, 200 μg/mL streptomycin and 2.5 μg/mL amphotericin B (Sigma-Aldrich) in 12-well plates overnight to validate sterility prior to the assays. Four to eight O. ochengi adult masses were treated individually the following day with a serial dilution of each compound, and controls were treated with 1% DMSO. While in culture, the male worms normally egress from the nodules into the surrounding media and thus can be monitored in parallel for motility. The O. ochengi adult masses were incubated at 37 °C with 5% CO2 for the duration of the assay. Male motility within each well was visually scored every day and over 5 days after compound addition, and female viability within the nodules was assessed by MTT after 7 days as previously described. The O. ochengi adult masses containing female worms were individually placed in wells of a 48-well plate with 0.5 mL of 0.5 mg/mL MTT in PBS and incubated at 37 °C for 30 min. Female viability was visually rated by the degree of formazan production (live worms have blue coloration) in the female worm within the treated nodule versus control worm masses. […] Prism 4.0 for Windows was used to calculate IC50s.

O. ochengi mf = assay: O. ochengi microfilariae motility assay; assay type: cell-based, Onchocerca ochengi
Experimental: (§1) To assess the effects of the compounds on O. ochengi mf, the mf were harvested from infected cow skin and cultured (10–15 mf per well) in 100 µL media in 96-well plates with a confluent feeder layer of monkey kidney epithelial cells (MK2) as previously described. […] All compounds were also counter-screened with L. loa mf collected from infected individuals with approval from the University of Buea (IRB approval # 964-19). Mf were separated from blood cells using a Percoll gradient as previously described and set up for assays (10–15 mf per well).

Loa loa mf = assay: Loa loa microfilariae motility counter-screen; assay type: cell-based
Experimental: as §1

Brugia pahangi = assay: Brugia pahangi/gerbil model of infection: worm and peritoneal mf counts at necropsy; assay type: in vivo
Experimental: Male Mongolian gerbils 50–60 g, 5–7 weeks in age (Meriones unguiculatus, Charles River Laboratories International, Inc., Wilmington, MA, USA) were injected intraperitoneally (IP) with 200 third-larval stage B. pahangi and treated a minimum of 3 months later when larvae developed into adult worms.
Animals were given IP doses of 1 mg/kg once a day for 5 days based on in vivo studies by Jones et al., 2009 [14] and gerbil PK analyses. Compounds are light sensitive and were shielded from light during formulation. Animals were necropsied 13 weeks post-first dose, and peritoneal cavities were washed with 100 mL of PBS to collect adult worms and mf that had been released from female worms. Adult worms were separated by sex, counted, and processed for subsequent analyses. Mf from the peritoneal cavities were quantified by mixing peritoneal wash 9:1 (v/v) with 0.04% methylene blue:water and counted using an inverted microscope.
Worm burden, peritoneal mf counts, overnight mf sheds and qPCR data were analyzed using a Kruskal–Wallis test followed by Dunn’s multiple comparison. To determine significant differences in embryograms, a two-way ANOVA was conducted with a Dunnett’s multiple comparisons test, and significance levels were determined based on comparisons with vehicle treated animals. All statistical analyses were determined using Prism 8 version 8.2.0(272).

O. volvulus pre-adult L5 [2] = assay: O. volvulus pre-adult (Ov L5) motility assay; assay type: cell-based; details: Onchocerca volvulus, 504 h; on Day 21; read-out: O. volvulus L5 Inhibition of Motility IC50
[3] = test system: Brugia pahangi adult females; assay: In vitro motility assay with adult female Brugia pahangi (Worminator)
[4] = gerbil, 1 mg/kg IP once a day for 5 days, necropsy 13 weeks post-first dose, mean (SEM)
[5] = gerbil, 1 mg/kg IP once a day for 5 days, necropsy 13 weeks post-first dose, mean (SEM), 1 mg/kg

- IC50 (O. ochengi adult males): 110 nM
- IC50 (O. ochengi mf; Onchocerca ochengi, 120 h, Day 5): 300 nM
- IC50 (O. volvulus pre-adult L5 [2]): < 300 nM
- IC50 ([3]; Brugia pahangi, 72 h, read-out: Brugia Adult Females Inhibition of Motility Day 3 IC50): 0.3 nM
- Brugia Adult Females Inhibition of Motility Day 3 IC50 ([3]; Day 3): sub-micromolar range
SMILES: Cc1cc(/C=C/c2ccc3cc(N(C)C)ccc3[n+]2C)c(C)n1-c1ccccc1 [PVP, pyrvinium pamoate, reference compound]
- Ov L5 fate during assay (in words) (O. volvulus pre-adult L5 [1]; 1 µM, 14 days drug then washout): dead by day 14; also recorded: did not recover
- inhibition at 1 µM (O. volvulus pre-adult L5 [1]; 336 h, Day 14 @ 1 µM): 100%
- inhibition at 1 µM (O. volvulus pre-adult L5 [1]; Day 36 @ 1 µM, 14 days drug then washout): > 90%
- O. ochengi Mf Inhibition of Motility Day 5 @ 10 µM (O. ochengi mf; 10 µM): completely inhibited
- inhibition at 10 µM (O. ochengi mf; Onchocerca ochengi, 120 h, 10 µM, Day 5): 100%
- Loa loa Mf Inhibition of Motility Day 5 @ 10 µM (Loa loa mf): completely inhibited
- inhibition at 10 µM (Loa loa mf; Loa loa, 120 h, Day 5): 100%
- Total female worms recovered from treated animals (Brugia pahangi; gerbil, 1 mg/kg IP): 1
- Reduction of peritoneal mf numbers compared to control group (Brugia pahangi; gerbil, 1 mg/kg IP once a day for 5 days, 13 weeks post-first dose): ~ 95%
- Reduction of adult worm numbers (worm burden) compared to control group (Brugia pahangi; gerbil, 1 mg/kg IP once a day for 5 days, 13 weeks post-first dose, not statistically significant, 1 mg/kg): ~ 95% and 95%
- Female worms per animal (Brugia pahangi; [4]): 0.1 (0.1)
- Male worms per animal (Brugia pahangi; [4]): 0.7 (0.4)
- Adult worms per animal (Brugia pahangi; [5]): 0.9 and 0.9 (0.5)
- Mf per animal (peritoneal cavity) (Brugia pahangi; [5]): 10.4 × 10^3 and 10,429
- Total worms recovered from treated animals (Brugia pahangi; n = 7 animals, vehicle total 148 worms (n = 8)): 6 worms
- Brugia Adult Females Inhibition of Motility Day 3 @ 1 µM ([3]; 1 µM, Day 3, 1 µM): 82%
- inhibition at 1 µM ([3]; Brugia pahangi, 72 h, read-out: Brugia Adult Females Inhibition of Motility Day 3 @ 1 µM, 1 µM, Day 3): > 70%
